Drawing on US10071981B2, “Method of priming plants against abiotic stress factors” (Research Foundation of The City University of New York, priority 2014, dated 2018), this text covers proline content for 1 compound.

The experiment has as its system Medicago truncatula plants. Briefly: Proline content (ninhydrin assay) in leaves of drought-stressed plants. It counts as in vivo. Particulars: 100 μM, 30% (v/v) MetOH; vs drought-stressed alone samples; FIG. 6. Here is the method: Mature (40 d) Medicago truncatula ecotype Jemalong A17 plants were used for the purposes of this study. These were grown in soil medium under controlled, optimal growth conditions and were then subjected to drought stress. Drought was imposed by withholding watering for 9 d (for detailed growth and stress conditions see Filippou et al., 2011). Both NOSH and NOSH-aspirin were applied at 100 μM concentration by foliar spraying at the start of stress imposition. The hybrid donors were diluted in 70% (v/v) and 30% (v/v) methanol, 20% (v/v) acetone or 20% (v/v) DMSO. Cellular damage was evaluated by lipid peroxidation levels (TBARS content) and hydrogen peroxide (H2O2) content as previously described (Filippou et al., 2011; Tanou et al., 2012), while osmoprotective capacity was evaluated by proline content (ninhydrin assay) as previously described (Antoniou et al., 2013). […] Relative quantification of gene expression and statistical analysis of all qRT-PCR data (pairwise fixed reallocation randomization test) were performed using the REST software according to Pfaffl et al. (2002). […] In addition, proline content was evaluated as proline is a major osmoprotective molecule involved in the defense response of plants to abiotic stress conditions (Filippou et al., 2013b).

For the compound `O=C(CCCO[N+](=O)[O-])Oc1ccccc1C(=O)Oc1ccc(-c2cc(=S)ss2)cc1` [NOSH-A], the proline content result is recorded as “increased proline content”.
